A short description of the data set: gradient 5% acetonitrile 3 min, to 50% in 2 min, to 85% in 15 min, held 3 min, 100 µL/min. Conditions: column: Zorbax Extend-C18 2.1 x 50 mm; eluents: water / acetonitrile, 0.1% formic acid. In outline:
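Retention times come from adduct peaks that were picked computationally and then checked by hand. The standards, pure and pooled in mixtures of ~100 molecules, were run on a Zorbax Extend-C18 column (2.1 × 50 mm, 1.8 μm) at 100 μL/min with water and acetonitrile, each with 0.1% formic acid. Detection was by quadrupole time-of-flight mass spectrometry in positive and negative ionization mode, with a dead volume of 40 μL and a dwell volume of 900 μL.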
Compound `Cc1cc(C)c2c(N3CCSCC3)nc(C(=O)NCC(C)C)nc2n1` yielded an RP-LC retention time of 658 s. The value for `Cc1nn(-c2ccccc2)c(C)c1S(=O)(=O)N1CCC(C(=O)NCc2ccccc2Cl)CC1` was 963 s; that for `O=C(NCC1CCN(c2ncccn2)CC1)c1cccc(C(F)(F)F)c1` was 749 s; that for `COC(=O)c1ccc(CNC2CCN(c3ccc(C(=O)NC4CC4)cn3)C2)cc1` (stereo not given) was 552 s.

`Cn1c(=O)oc2cc(-c3noc(-c4ccc(C(C)(C)C)cc4)n3)ccc21` came in with an RP-LC retention time of 1310 s. As for `COc1ccc2cc(C(=O)N3CCC(CC(=O)NCCc4c[nH]c5ccc(C)cc45)CC3)[nH]c2c1`, the figure is 817 s; as for `Cc1ccc(NC(=O)N2CCC(n3cnc4c(C)cccc4c3=O)CC2)c(C)c1`, 835 s; as for `Cc1cc(C)n(Cc2nc(-c3ccc(NC(=O)Cc4ccccc4F)cc3)oc2C)n1`, 915 s. The value for `O=C(Nc1ccc2nc3n(c(=O)c2c1)CCC3)Nc1ccc(F)cc1F` was 686 s; that for `CCOc1ccc(CNC(=O)C2CCCN(c3nccnc3Oc3ccc(C)cc3)C2)cc1OCC` (stereo not given) was 1070 s. The value for `Cn1c(=O)c2cc(C(=O)NCCc3ccncc3)nn2c2ccccc21` was 584 s; that for `Oc1ccc(-c2nc3ncccn3c2Nc2cccc(C(F)(F)F)c2)cc1` was 764 s; that for `Cc1cccc(C)c1NC(=O)Cn1nc(N2CCC(C)CC2)c2ccccc2c1=O` was 1240 s.

With `CCOC(=O)c1c(C)[nH]c(CCC(=O)NCCc2cccs2)c1C`, the RP-LC retention time was 822 s. As for `Cc1c(C(=O)N2CCOCC2)cnn1-c1cc(-c2nc(C(C)C)no2)ccn1`, the figure is 840 s. The value for `COc1ccc(Cl)cc1NC(=O)C1CCN(S(=O)(=O)c2cc(C(=O)N(C)C)cs2)CC1` was 889 s; that for `CC1CCN(S(=O)(=O)c2cccc(-c3cn4cc(Cl)ccc4n3)c2)CC1` was 1000 s; that for `Cc1cc(C)n(-c2cc(NCCNC(=O)c3ccc(F)cc3F)ncn2)n1` was 718 s. The value for `CCNC(=O)NCCC1CCN(S(=O)(=O)c2ccc(F)cc2)CC1` was 728 s. The compound `CCn1ccc(C(=O)NC(C)C)n1` showed an RP-LC retention time of 642 s.

`O=C(NCCc1csc(-c2cccs2)n1)C1CCN(C(=O)c2ccccc2)CC1` displayed an RP-LC retention time of 740 s. As to `CCc1ccc(N2C(C)=NS(=O)(=O)c3cccnc32)cc1`, the RP-LC retention time came out at 874 s. The value for `O=C(CSc1nc2ccccc2[nH]1)Nc1nccs1` was 613 s; that for `O=C(c1cccn1-c1nnc(N2CCCC2)s1)N1CCN(c2ccccn2)CC1` was 598 s; that for `CC(C)N1CCn2c(nc3cc(C(=O)NC4CCCCCC4)ccc32)C1=O` was 750 s.

The compound `Cc1ccc(-c2cc(C(F)(F)F)n3nc(C(=O)O)cc3n2)cc1` displayed an RP-LC retention time of 943 s. As for `CCCn1cc(CCNS(=O)(=O)c2ccccc2F)c2cccnc21`, the figure is 820 s; as for `CCN1C(=O)c2ccccc2Oc2ccc(C(=O)NCc3ccc(C)cc3)cc21`, 958 s; as for `Cc1cc2c(cc1S(=O)(=O)N1CCCC1C(=O)N1CCc3ccccc3C1)OCC(=O)N2` (stereo not given), 748 s. The value for `CSc1ccccc1NC(=O)c1coc(NC(=O)c2ccco2)n1` was 699 s; that for `CC(C)n1c(=O)sc2cc(S(=O)(=O)N3CCC(C(=O)N4CCN(C)CC4)CC3)ccc21` was 628 s; that for `Cn1c(N2CCCC(C(=O)NCCCN3CCC(Cc4ccccc4)CC3)C2)cc(=O)n(C)c1=O` (stereo not given) was 630 s. As for `C[C@@H]1CCNC(=O)c2cc3ccc(C(=O)Nc4nc5ccccc5n4CCCN(C)C)cc3n21`, the figure is 642 s; as for `COc1ccc(OC)c(NC(=O)C2CCN(S(=O)(=O)c3ccc4c(c3)NC(=O)C(C)O4)CC2)c1` (stereo not given), 856 s. For `CCc1ccc(-c2cc(C(N)=O)[nH]n2)cc1`, the RP-LC retention time was 708 s. `Cc1nc(OCC(=O)NCc2ccc(N(C)C)cc2)c2c(C)c(C)oc2n1` yielded an RP-LC retention time of 653 s. As for `O=c1cc(N2CCOCC2)oc2c(-c3cccc4c3sc3ccccc34)cccc12`, the figure is 1190 s. The value for `CNC(=O)c1nc(C(=O)NCCc2ccc(Cl)cc2)cs1` was 771 s. `Cc1ccc(-c2ncccc2CNS(=O)(=O)c2ccc(C#N)cc2)cc1` gave an RP-LC retention time of 688 s.

As for `CC(C)c1ccc(-c2noc(N3CCC(C(=O)N4CCOCC4)CC3)n2)cc1`, the RP-LC retention time is 955 s. `CSc1ncccc1C(=O)N1CCc2cc(-c3ccno3)ccc21` gave an RP-LC retention time of 871 s. As for `O=C(Cn1cccc1-c1nnc(C2CCC2)o1)N1CCc2ccccc21`, the figure is 946 s; as for `O=C(C1CCN(S(=O)(=O)c2ccc(-c3noc(C4CCCC4)n3)cc2)CC1)N1CCCC1`, 1030 s; as for `O=C(NCC1CCOCC1)Nc1c(F)cccc1F`, 628 s. The value for `Cc1ccc(Cl)cc1N1CCN(S(=O)(=O)c2nn(C)cc2C(=O)NCCN(C)C)CC1` was 732 s; that for `O=C(c1c(OCC2CC2)cc(=O)n2c1CCCCC2)N1CCOCC1` was 645 s. The compound `Cn1ncc2c3ccccc3n(CCCC(=O)NCCc3ccccc3)c2c1=O` displayed an RP-LC retention time of 845 s. `CC(C)CCN1CCc2[nH]nc(C(=O)N(C)C)c2C1` displayed an RP-LC retention time of 575 s.

Regarding `CC(C)CN1CCn2cc(S(=O)(=O)Nc3ccc(Cl)cc3)cc2C1=O`, the RP-LC retention time was 848 s. As for `Cn1nnnc1NCc1ccc2c(c1)n(C)c(=O)n2C`, the figure is 597 s. As for `COc1ccc(-c2cc(C(=O)NCC(c3ccco3)N(C)C)no2)cc1` (stereo not given), the figure is 661 s; as for `O=S(=O)(Cc1cccc(Cl)c1)N1CCc2nc(-c3ccc(Cl)cc3)ncc2C1`, 1210 s. The value for `CCC(=O)Nc1ccc(-n2cnc(C(=O)N3CCN(c4ccc(C)cc4C)CC3)c2)nc1` was 865 s; that for `Cc1oc(-c2[nH]ncc2C(=O)N2CCCC2)cc1S(=O)(=O)N1CCC(C)CC1` was 746 s.

`CCN(CC)C(=O)Oc1ccc(C(=O)Nc2cccc3ccccc23)cc1` returned an RP-LC retention time of 896 s. The value for `Cc1cc(N2CCN(C(=O)c3ccc(C#N)cc3)CC2)nc2nnc(C)n12` was 582 s; that for `O=C1CN(Cc2ccc(F)cc2Cl)C2(CCCC2)CN1` was 668 s. As for `COc1ccccc1OCCNC(=O)CCc1nnc2c3cc(-c4ccc(F)cc4)nn3ccn12`, the figure is 752 s; as for `CCS(=O)(=O)N1CCc2nn(Cc3ccccc3)c(=O)n2CC1`, 687 s; as for `CCCCOc1ccc(CNC(=O)CSc2nccnc2Oc2ccccc2)cc1`, 1130 s.

As to `Cc1ccc(NC(=O)N2CCC(C(C)C(=O)Nc3ccc(C)cc3Cl)CC2)cc1` (stereo not given), the RP-LC retention time stood at 950 s. The value for `COCCc1nncn1C1CN(Cc2cccc(OC(F)(F)F)c2)C1` was 606 s; that for `c1cn2cnnc2cc1-c1noc(-c2ccc3c(c2)OCO3)n1` was 792 s; that for `O=C(NC1CCCCC1)c1cccc(Nc2c(-c3ccc(Cl)cc3)nc3cnccn23)c1` was 935 s. As for `Cc1ccc(CNC(=O)c2cnc(-c3ccc(C)cc3)nc2-c2ccncc2)cc1`, the figure is 923 s. As for `CCCCS(=O)(=O)NCCc1noc(-c2ccccc2)n1`, the figure is 615 s; as for `CCCC(=O)NC1CCN(c2ccc(C)cc2)C1=O` (stereo not given), 714 s; as for `O=C(C1CCN(c2cnc3nccnc3c2)CC1)N1CCN(c2ccccc2F)CC1`, 747 s. `O=C(Nc1nc2ccc([N+](=O)[O-])cc2s1)c1ccc(Br)s1` displayed an RP-LC retention time of 1040 s. The value for `CCOc1ccc(-c2noc(Cc3nnc(-c4cccc(Br)c4)o3)n2)cc1` was 1160 s; that for `Cc1ccc(NC(=O)Cn2c(N3CCOCC3)nc(C)cc2=O)cc1` was 680 s; that for `COC(=O)c1cnn2c(C)c(Cc3ccc(C)cc3)c(C)nc12` was 885 s. As for `COc1ccc(OCC2c3cc(OC)c(OC)cc3CCN2C(=O)c2cccc(Cl)c2)cc1` (stereo not given), the figure is 1120 s; as for `Cc1ccccc1NC(=O)C1C(=O)N(CCO)C2(C)CC1c1ccccc1O2` (stereo not given), 653 s; as for `CCOc1ccc(OCC)c(NC(=O)CSc2nnc3c4cc(-c5ccc(OC)cc5)nn4ccn23)c1`, 1010 s. As for `Cc1cccc(-n2c(=O)c3sccc3n(Cc3nc(-c4ccc(OC(C)C)cc4)no3)c2=O)c1`, the figure is 1120 s; as for `CCCCCCC(=O)OC1CC(C)(C)NC(C)(C)C1`, 707 s; as for `CC[C@H]1[C@@H]2C[C@H]3[C@@H]4N(C)c5ccccc5[C@]45C[C@@H]([C@H]2[C@H]5O)N3[C@@H]1O`, 652 s. On to `O=C(Nc1ccccc1)Nc1c(-c2ccc(F)cc2)nc2ccccn12`, for which the RP-LC retention time came out at 662 s.

As to `CCc1cc(=O)n(CC(=O)NCc2ccccc2)c(N2CCOCC2)n1`, the RP-LC retention time worked out at 647 s.

The values above are taken from the METLIN SMRT retention time set (Domingo-Almenara et al. 2019).
